What was measured:
[1] = biological target: T1, human rec ACSS2 (Homo sapiens, UniProt Q9NR19); test: Biochemical activity ACSS2 assay (AMP-Glo); details: human recombinant ACSS2, AMP-Glo, 180 min at 37° C.
T1 construct: myc (C); purchased Origene
In short: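 C-terminal myc-tagged human recombinant ACSS2 (1 nM) reacted with 100 µM ATP, 100 µM CoA and 500 µM acetate (final) in pH 7.5 Hepes buffer for 180 min at 37° C, compound in 10 concentrations from 30 µM. Released AMP detected by AMP-Glo luminescence. IC50 normalised to inhibitor-free reaction and 5 µM reference inhibitor.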

[2] = biological target: T2, ACSS2 (Homo sapiens, UniProt Q9NR19); test: Cellular assay of 14C acetate incorporation into fatty acids (IC50 ACSS2 cellular lipids); assay type: cell-based; details: HCT-15 cells
T2 construct: endogenous fatty acid synthesis activity in the human HCT-15 cancer cell line; endogenous in cells; host or cells: HCT-15
Experimental: This protocol describes a cellular assay capable to quantify endogenous fatty acid synthesis activity in the human HCT-15 cancer cell line following the incorporation of extracellularly administered radiolabeled ^14C acetate with a scintillation proximity based read out on extracted fatty acids.
HCT-15 cells were grown in RPMI 1640 (Gibco) supplemented with 2 mM glutamine, 1 mM sodium pyruvate 10 mM HEPES and 10 % FCS (heat-inactivated) passaged every 2-3 days to remain a subconfluent, vital culture. A working cell bank was prepared with each aliquot containing 1x10^7 viable cells. After thawing, these cells are dilute immediately 1:20 in pre-warmed (37° C.) culture medium. Cells are collected by centrifugation at 200 x g for 5 min, and the supernatant is replaced by 30 mL of fresh culture medium per aliquot to obtain a cell suspension containing 350000 cells/ml. From this cell suspension 100 µL are dispersed into each well of a collagen coated 96 well plate, (black, clear bottom, PS, F-bottom, Greiner) and culture for 24 h (37° C., 5% CO2). After incubation the culture medium is removed and the wells are washed once with 100 µL PBS++ (supplemented with Mg^2+/ Ca^2+, Gibco) and 50 µL assay medium (RPMI 1640 + 10 mM HEPES) are added to each well. Compounds serial dilutions are prepared from 10 mM stock solutions in DMSO using a fixed dilution factor (usually 1:3). After preparation of the dilution series in DMSO, the individual dilutions are further diluted in the assay medium. This working dilution is prepared such, that the concentration is 7x of the final concentration in the assay. The maximal DMSO concentration in the final assay is 0.1%.
To each well 10 µL compound working dilution or DMSO blank are added and the cells are cultured for 2 h (37° C., 5% CO2). Then 10 µL AlamarBlue reagent (Invitrogen) containing 14 µCi/mL ^14C-acetate (Perkin Elmer) are added to each well (70 µl total volume) and cells are again cultured for 2 h. Cell viability is verified by measuring the AlamarBlue fluorescence (Tecan Safire, ex: 544 nm / em: 590 nm). After incubation the culture medium is removed and the wells are carefully washed once with cold 100 µL PBS++. For cell lysis and fatty acid recovery 50 µl 0.1 M NaOH and 0.1 % Triton-X100 are added per well. The plate is sealed with PlateLoc (clear peelable heat seal, Agilent) and incubate at 70° C. for 16-24 h. After cooling to room temperature, the plates are centrifuged for 1 min at 1000 rpm and the plate seals are removed. For acidification 150 µL 0.1 M HCl are added to each well, mixed and 150 µL of the mixture are transferred into a 96 well FlashPlate (Perkin Elmer). The plates are sealed with TopSeaI-a (Perkin Elmer). To allow for the fatty acid binding to the well surfaces the plates are incubate for 4 h at 70° C. After cooling to room temperature, the plates are centrifuged for 1 min at 1000 rpm and stored for 0.5-2 h at room temperature in the dark. Radioactivity from ^14C incorporation into fatty acids in the wells is measured as CPM count in a MicroBeta scintillation counter (Perkin Elmer).

[3] = biological target: T2, ACSS2; test: Cellular assay of 14C acetate incorporation into histones (IC50 ACSS2 cellular histone); assay type: cell-based; details: HCT-15 cells
In short: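 Human HCT-15 cells preincubated 1 h with compound (0.25% DMSO final), then pulsed 3 h with 14C-acetate. Histones were acid-extracted (0.2 M HCl, overnight, 4° C) after Triton lysis in sodium-butyrate buffer; incorporated 14C counted by liquid scintillation (CPM) to give IC50.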

T2 sequence (Q9NR19 whole entry): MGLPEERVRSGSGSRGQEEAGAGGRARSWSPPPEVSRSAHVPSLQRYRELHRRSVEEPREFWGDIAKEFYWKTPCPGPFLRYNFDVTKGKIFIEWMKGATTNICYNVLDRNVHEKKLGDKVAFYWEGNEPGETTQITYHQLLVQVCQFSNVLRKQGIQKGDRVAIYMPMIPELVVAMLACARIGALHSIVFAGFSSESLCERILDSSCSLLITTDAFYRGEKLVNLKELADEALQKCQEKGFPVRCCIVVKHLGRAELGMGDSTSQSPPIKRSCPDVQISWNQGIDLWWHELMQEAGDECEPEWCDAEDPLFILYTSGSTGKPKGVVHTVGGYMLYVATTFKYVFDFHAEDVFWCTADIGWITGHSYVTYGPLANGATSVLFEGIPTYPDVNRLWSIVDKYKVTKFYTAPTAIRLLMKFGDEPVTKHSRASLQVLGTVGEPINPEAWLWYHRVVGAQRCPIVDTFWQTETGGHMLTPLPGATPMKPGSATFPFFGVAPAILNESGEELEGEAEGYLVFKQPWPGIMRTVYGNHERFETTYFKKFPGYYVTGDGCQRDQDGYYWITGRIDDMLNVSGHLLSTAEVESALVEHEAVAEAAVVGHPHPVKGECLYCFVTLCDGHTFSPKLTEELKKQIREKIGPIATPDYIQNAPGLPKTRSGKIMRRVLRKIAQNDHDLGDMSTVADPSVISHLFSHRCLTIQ
T1 sequence (Q9NR19 whole entry): as above

Compound | IC50 [1] | IC50 [2] | IC50 [3]
CCn1cnc(NC(=O)c2cc3c(nc2OC)nc(C(O)(c2ccccc2)c2cccs2)n3CC)n1 (racemic) [Compound 47, 1-ethyl-N-(1-ethyl-1H-1,2,4-triazol-3-yl)-2-[hydroxy(phenyl)(thiophen-2-yl)methyl]-5-methoxy-1H-imidazo[4,5-b]pyridine-6-carboxamide] | 1 to 10 nM | 10 to 100 nM | 0.01 to 1 nM
CCn1cnc(NC(=O)c2cc3c(nc2OC)nc(C(O)(c2ccccc2)c2ccc(C)s2)n3CC)n1 (racemic) [Compound 51, 1-ethyl-N-(1-ethyl-1H-1,2,4-triazol-3-yl)-2-[hydroxy(5-methylthiophen-2-yl)phenylmethyl]-5-methoxy-1H-imidazo[4,5-b]pyridine-6-carboxamide] | 1 to 10 nM | 1 to 10 nM | 0.01 to 1 nM
CCn1c(C(O)(c2ccccc2)c2ccccn2)nc2nc(OC)c(C(=O)Nc3ncn(CCO)n3)cc21 (racemic) [Compound 61, 1-ethyl-2-[hydroxy(phenyl)(pyridin-2-yl)methyl]-N-[1-(2-hydroxyethyl)-1H-1,2,4-triazol-3-yl]-5-methoxy-1H-imidazo[4,5-b]pyridine-6-carboxamide] | 10 to 100 nM | 0.01 to 1 nM | 10 to 100 nM
CCn1c(C(O)(c2ccccc2)c2ccccn2)nc2nc(OC)c(C(=O)Nc3ncn(CCOC)n3)cc21 (racemic) [Compound 65, 1-ethyl-2-[hydroxy(phenyl)(pyridin-2-yl)methyl]-5-methoxy-N-[1-(2-methoxyethyl)-1H-1,2,4-triazol-3-yl]-1H-imidazo[4,5-b]pyridine-6-carboxamide] | 100 to 10000 nM | 10 to 100 nM | 1 to 10 nM
CCn1cnc(NC(=O)c2cc3c(nc2OC)nc(C(O)(c2ccccc2)c2ccccn2)n3CC)n1 (racemic) [Compound 69, 1-ethyl-N-(1-ethyl-1H-1,2,4-triazol-3-yl)-2-[hydroxy(phenyl)(pyridin-2-yl)methyl]-5-methoxy-1H-imidazo[4,5-b]pyridine-6-carboxamide] | 1 to 10 nM | 1 to 10 nM | 0.01 to 1 nM
CCn1cnc(NC(=O)c2cc3c(nc2OC)nc(C(O)(c2ccc(OC(F)F)cc2)c2ccccc2F)n3CC)n1 (single isomer, unassigned) [Compound 75] | 0.01 to 1 nM | 0.01 to 1 nM | 1 to 10 nM
CCc1c(C(O)(c2ccccc2F)c2ccccc2F)nn2cc(Cl)c(C(=O)Nc3cnn(CC)c3)cc12 [Compound 12, 2-[Bis-(2-fluoro-phenyl)-hydroxy-methyl]-6-chloro-3-ethyl-pyrazolo[1,5-a]pyridine-5-carboxylic acid (1-ethyl-1H-pyrazol-4-yl)-amide] | 1 to 10 nM | 1 to 10 nM | 1 to 10 nM
CCn1c(C(O)(c2ccccc2)c2ccccc2)nc2nc(OC)c(C(=O)Nc3ncn(CCN)n3)cc21 [Compound 46, N-[1-(2-aminoethyl)-1H-1,2,4-triazol-3-yl]-1-ethyl-2-(hydroxydiphenylmethyl)-5-methoxy-1H-imidazo[4,5-b]pyridine-6-carboxamide] | 10 to 100 nM | 100 to 10000 nM | 100 to 10000 nM
CCn1cnc(NC(=O)c2cc3c(nc2OC)nc(C(O)(c2ccccc2)c2ccccc2)n3CCO)n1 [Compound 50, N-(1-ethyl-1H-1,2,4-triazol-3-yl)-2-(hydroxydiphenylmethyl)-1-(2-hydroxyethyl)-5-methoxy-1H-imidazo[4,5-b]pyridine-6-carboxamide] | 1 to 10 nM | 100 to 10000 nM | 1 to 10 nM
CCn1cnc(NC(=O)c2cc3c(nc2OC)nc(C(O)(c2cccs2)c2cccs2)n3CC)n1 [Compound 55, 1-ethyl-N-(1-ethyl-1H-1,2,4-triazol-3-yl)-2-[hydroxybis(thiophen-2-yl)methyl]-5-methoxy-1H-imidazo[4,5-b]pyridine-6-carboxamide] | 1 to 10 nM | 0.01 to 1 nM | 0.01 to 1 nM
CCc1coc(NC(=O)c2cc3c(nc2OC)nc(C(O)(c2ccccc2)c2ccccc2)n3CC)n1 [Compound 59, 1-ethyl-N-(4-ethyl-1,3-oxazol-2-yl)-2-(hydroxydiphenylmethyl)-5-methoxy-1H-imidazo[4,5-b]pyridine-6-carboxamide] | 1 to 10 nM | 0.01 to 1 nM | 0.01 to 1 nM
CCc1cnc(NC(=O)c2cc3c(nc2OC)nc(C(O)(c2ccccc2)c2ccccc2)n3CC)o1 [Compound 60, 1-ethyl-N-(5-ethyl-1,3-oxazol-2-yl)-2-(hydroxydiphenylmethyl)-5-methoxy-1H-imidazo[4,5-b]pyridine-6-carboxamide] | 0.01 to 1 nM | 1 to 10 nM | 0.01 to 1 nM
CCc1nnc(CNC(=O)c2cc3c(nc2OC)nc(C(O)(c2ccccc2)c2ccccc2)n3CC)o1 [Compound 62, 1-ethylN-[(5-ethyl-1,30,4-oxadiazol-2-yl)methyl]-2-(hydroxydiphenylmethyl)-5-methoxy-1H-imidazo[4,5-b]pyridine-6-carboxamide] | 10 to 100 nM | 1 to 10 nM | 10 to 100 nM
CCc1nnc(NC(=O)c2cc3c(nc2OC)nc(C(O)(c2ccccc2)c2ccccc2)n3CC)o1 [Compound 64, 1-ethyl-N-(5-ethyl-1,30,4-oxadiazol-2-yl)-2-(hydroxydiphenylmethyl)-5-methoxy-1H-imidazo[4,5-b]pyridine-6-carboxamide] | 0.01 to 1 nM | 0.01 to 1 nM | 10 to 100 nM
CCn1c(C(O)(c2ccccc2)c2ccccc2)nc2nc(Cl)c(C(=O)Nc3cnn(CCO)c3)cc21 [Compound 66, 5-chloro-1-ethyl-2-(hydroxydiphenylmethyl)-N-[1-(2-hydroxyethyl)-1H-pyrazol-4-yl]-1H-imidazo[4,5-b]pyridine-6-carboxamide] | 100 to 10000 nM | 1 to 10 nM | 10 to 100 nM
CCn1c(C(O)(c2ccccc2)c2ccccc2)nc2nc(OC)c(C(=O)Nc3ncn(CCOC)n3)cc21 [Compound 68, 1-ethyl-2-(hydroxydiphenylmethyl)-5-methoxy-N-[1-(2-methoxyethyl)-1H-1,2,4-triazol-3-yl]-1H-imidazo[4,5-b]pyridine-6-carboxamide] | 10 to 100 nM | 100 to 10000 nM | 10 to 100 nM
CCn1c(C(O)(c2ccccc2)c2ccccc2)nc2nc(OC)c(C(=O)Nc3ncn(CCO)n3)cc21 [Compound 73, 1-ethyl-2-(hydroxydiphenylmethyl)-N-[1-(2-hydroxyethyl)-1H-1,2,4-triazol-3-yl]-5-methoxy-1H-imidazo[4,5-b]pyridine-6-carboxamide] | 1 to 10 nM | 10 to 100 nM | 10 to 100 nM
CCn1cnc(NC(=O)c2cc3c(nc2OC)nc(C(O)(c2ccccc2)c2ccccc2)n3CC)c1 [Compound 76, 1-ethyl-N-(1-ethyl-1H-imidazol-4-yl)-2-(hydroxydiphenylmethyl)-5-methoxy-1H-imidazo[4,5-b]pyridine-6-carboxamide] | 1 to 10 nM | 1 to 10 nM | 1 to 10 nM
CCn1ccc(NC(=O)c2cc3c(nc2Cl)nc(C(O)(c2ccccc2)c2ccccc2)n3CC)n1 [Compound 83, 5-chloro-1-ethyl-N-(1-ethyl-1H-pyrazol-3-yl)-2-(hydroxydiphenylmethyl)-1H-imidazo[4,5-b]pyridine-6-carboxamide] | 1 to 10 nM | 1 to 10 nM | 0.01 to 1 nM
CCn1cc(NC(=O)c2cc3c(nc2F)nc(C(O)(c2ccccc2)c2ccccc2)n3CC)cn1 [Compound 92, 1-ethyl-N-(1-ethyl-1H-pyrazol-4-yl)-5-fluoro-2-(hydroxydiphenylmethyl)-1H-imidazo[4,5-b]pyridine-6-carboxamide] | 10 to 100 nM | 1 to 10 nM | 1 to 10 nM

— US20230271956A1, “AMIDE DERIVATIVES” (Merck Patent GmbH, priority 2020, published 2023)
